How the values were obtained:
Experiment in all cases: post-emergence herbicidal activity, greenhouse
Type in all cases: in vivo
Barnyardgrass = test system: Barnyardgrass
Summary of the method: (§1)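 After sowing in soil-filled pans and growing under greenhouse conditions, plants at two to three weeks were sprayed post-emergence with the test compound in a formulation containing approximately 0.4% emulsifier by weight. Observations of plant injury, relative to controls, followed at about two and four weeks.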

Common Lambsquarters = test system: Common Lambsquarters
Summary of the method: as §1

Yellow Nutsedge = details: Table II
Summary of the method: (§2)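 Greenhouse-grown seedlings in soil pans; post-emergence atomizer spray at 2–3 weeks; injury against controls observed twice, near weeks 2 and 4.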

Cocklebur = test system: Cocklebur
Summary of the method: as §1

Morningglory = test system: Morningglory
Summary of the method: as §1

Quackgrass = details: Table II
Summary of the method: as §2

Panicum Spp = details: Table III, formulated in anhydrous tetrahydrofuran
Summary of the method: as §1

Rice = details: Table III, formulated in anhydrous tetrahydrofuran
Summary of the method: as §1

Sugar Beet = details: Table III, formulated in anhydrous tetrahydrofuran
Summary of the method: as §1

[1] = Table II, 2 WAT, 11.2 kg/h, formulated in anhydrous tetrahydrofuran
[2] = Table II, 4 WAT, 11.2 kg/h, formulated in anhydrous tetrahydrofuran
[3] = Table III, 2 WAT, 1.1 kg/h, formulated in anhydrous tetrahydrofuran
[4] = Table III, 2 WAT, 5.6 kg/h, formulated in anhydrous tetrahydrofuran
[5] = Table III, 2 WAT, .28 kg/h, formulated in anhydrous tetrahydrofuran
[6] = Table III, 4 WAT, 5.6 kg/h, formulated in anhydrous tetrahydrofuran
[7] = Table II, 2 WAT, 5.6 kg/h, formulated in anhydrous tetrahydrofuran
[8] = 2 WAT, 5.6 kg/h, formulated in anhydrous tetrahydrofuran
[9] = 2 WAT, 11.2 kg/h, formulated in anhydrous tetrahydrofuran
[10] = 4 WAT, 11.2 kg/h, formulated in anhydrous tetrahydrofuran

CC(C)(C)[Si](OP(=O)(O)CNCC(=O)O)(c1ccccc1)c1ccccc1 [Ex. 5, Glycine, N-((([(1,1-Dimethylethyl)Diphenylsilyl]oxy)-Hydroxyphosphinyl)-Methyl)-,]
0 (0-24% inhibition): Plant Response Index (K) (Barnyardgrass; Table II, 4 WAT, 5.6 kg/h) | Plant Response Index (K) (Barnyardgrass; [2]) | Plant Response Index (K) (Barnyardgrass; [3]) | Plant Response Index (K) (Barnyardgrass; [4]) | Plant Response Index (K) (Barnyardgrass; [5]) | Plant Response Index (K) (Barnyardgrass; [6]) | Plant Response Index (E) (Common Lambsquarters; [7]) | Plant Response Index (E) (Common Lambsquarters; [1]) | Plant Response Index (E) (Common Lambsquarters; Table II, 4 WAT, 5.6 kg/h) | Plant Response Index (E) (Common Lambsquarters; [2]) | Plant Response Index (E) (Common Lambsquarters; [3]) | Plant Response Index (E) (Common Lambsquarters; [4]) | Plant Response Index (E) (Common Lambsquarters; [5]) | Plant Response Index (G) (Yellow Nutsedge; 2 WAT, 5.6 kg/h) | Plant Response Index (G) (Yellow Nutsedge; [8]) | Plant Response Index (G) (Yellow Nutsedge; [9]) | Plant Response Index (G) (Yellow Nutsedge; [10]) | Plant Response Index (B) (Cocklebur; [4]) | Plant Response Index (B) (Cocklebur; [6]) | Plant Response Index (D) (Morningglory; [3]) | Plant Response Index (D) (Morningglory; [5]) | Plant Response Index (D) (Morningglory; [6]) | Plant Response Index (H) (Quackgrass; 2 WAT, 5.6 kg/h) | Plant Response Index (H) (Quackgrass; [8]) | Plant Response Index (H) (Quackgrass; 2 WAT, 11.2 kg/h) | Plant Response Index (H) (Quackgrass; [9]) | Plant Response Index (H) (Quackgrass; 4 WAT, 5.6 kg/h) | Plant Response Index (H) (Quackgrass; [10]) | Plant Response Index (S) (Panicum Spp; 2 WAT, 1.1 kg/h) | Plant Response Index (S) (Panicum Spp; 2 WAT, 5.6 kg/h) | Plant Response Index (S) (Panicum Spp; 2 WAT, .28 kg/h) | Plant Response Index (S) (Panicum Spp; 4 WAT, 5.6 kg/h) | Plant Response Index (O) (Rice; 2 WAT, 1.1 kg/h) | Plant Response Index (O) (Rice; 2 WAT, 5.6 kg/h) | Plant Response Index (O) (Rice; 2 WAT, .28 kg/h) | Plant Response Index (O) (Rice; 4 WAT, 5.6 kg/h) | Plant Response Index (M) (Sugar Beet; 2 WAT, 1.1 kg/h) | Plant Response Index (M) (Sugar Beet; 2 WAT, 5.6 kg/h) | Plant Response Index (M) (Sugar Beet; 2 WAT, .28 kg/h) | Plant Response Index (M) (Sugar Beet; 4 WAT, 5.6 kg/h)
1 (25-49% inhibition): Plant Response Index (K) (Barnyardgrass; [1]) | Plant Response Index (E) (Common Lambsquarters; Table II, 2 WAT, 5.6 kg/h) | Plant Response Index (E) (Common Lambsquarters; Table II, 2 WAT, 11.2 kg/h) | Plant Response Index (E) (Common Lambsquarters; [6]) | Plant Response Index (G) (Yellow Nutsedge; 2 WAT, 11.2 kg/h) | Plant Response Index (G) (Yellow Nutsedge; 4 WAT, 5.6 kg/h) | Plant Response Index (B) (Cocklebur; [7]) | Plant Response Index (B) (Cocklebur; [1]) | Plant Response Index (B) (Cocklebur; Table II, 4 WAT, 5.6 kg/h) | Plant Response Index (B) (Cocklebur; [2]) | Plant Response Index (B) (Cocklebur; [3]) | Plant Response Index (B) (Cocklebur; [5]) | Plant Response Index (D) (Morningglory; Table II, 2 WAT, 5.6 kg/h) | Plant Response Index (D) (Morningglory; [7]) | Plant Response Index (D) (Morningglory; Table II, 2 WAT, 11.2 kg/h) | Plant Response Index (D) (Morningglory; [1]) | Plant Response Index (D) (Morningglory; Table II, 4 WAT, 5.6 kg/h) | Plant Response Index (D) (Morningglory; Table II, 4 WAT, 11.2 kg/h) | Plant Response Index (D) (Morningglory; [2]) | Plant Response Index (D) (Morningglory; [4]) | Plant Response Index (H) (Quackgrass; 4 WAT, 11.2 kg/h)
2 (50-74% inhibition): Plant Response Index (K) (Barnyardgrass; Table II, 4 WAT, 11.2 kg/h) | Plant Response Index (E) (Common Lambsquarters; Table II, 4 WAT, 11.2 kg/h) | Plant Response Index (G) (Yellow Nutsedge; 4 WAT, 11.2 kg/h) | Plant Response Index (B) (Cocklebur; Table II, 2 WAT, 5.6 kg/h) | Plant Response Index (B) (Cocklebur; Table II, 2 WAT, 11.2 kg/h) | Plant Response Index (B) (Cocklebur; Table II, 4 WAT, 11.2 kg/h)

— US4471131A, “Novel silyl esters of N-phosphonomethylglycine” (Monsanto Company, priority 1983, dated 1984)
